Experiment [1] deals with eIF-2-alpha kinase GCN2 (Homo sapiens), Q9P2K8 [S808G]. In words: Selectivity interaction (Ambit KINOMEscan and KiNATiv profiling in Jurkat cells) EUB0000090b EIF2AK4. It counts as cell-based. As to conditions: at 1 µM.
In experiment [2] the target is Calcium/calmodulin-dependent protein kinase type II subunit beta (Homo sapiens) (UniProt Q13554). In words: Selectivity interaction (Kinase panel (DSF assay)) EUB0001558a CAMK2B. On the technique in general: Differential scanning fluorimetry follows unfolding on heating by fluorescence.
Experiment [3] deals with Epidermal growth factor receptor (Homo sapiens, UniProt P00533). In words: Selectivity interaction (Kinase panel (33PanQinase(R) Activity Assay)) EUB0000877a EGFR.
Experiment [4] concerns the target Hepatocyte growth factor receptor (Homo sapiens, UniProt P08581). In words: Selectivity interaction (Kinase panel (33PanQinase(R) Activity Assay)) EUB0000877a MET.
Experiment [5] deals with T1, Serine/threonine-protein kinase TAO2 (Homo sapiens) (UniProt Q9UL54).
T1 sequence (whole entry): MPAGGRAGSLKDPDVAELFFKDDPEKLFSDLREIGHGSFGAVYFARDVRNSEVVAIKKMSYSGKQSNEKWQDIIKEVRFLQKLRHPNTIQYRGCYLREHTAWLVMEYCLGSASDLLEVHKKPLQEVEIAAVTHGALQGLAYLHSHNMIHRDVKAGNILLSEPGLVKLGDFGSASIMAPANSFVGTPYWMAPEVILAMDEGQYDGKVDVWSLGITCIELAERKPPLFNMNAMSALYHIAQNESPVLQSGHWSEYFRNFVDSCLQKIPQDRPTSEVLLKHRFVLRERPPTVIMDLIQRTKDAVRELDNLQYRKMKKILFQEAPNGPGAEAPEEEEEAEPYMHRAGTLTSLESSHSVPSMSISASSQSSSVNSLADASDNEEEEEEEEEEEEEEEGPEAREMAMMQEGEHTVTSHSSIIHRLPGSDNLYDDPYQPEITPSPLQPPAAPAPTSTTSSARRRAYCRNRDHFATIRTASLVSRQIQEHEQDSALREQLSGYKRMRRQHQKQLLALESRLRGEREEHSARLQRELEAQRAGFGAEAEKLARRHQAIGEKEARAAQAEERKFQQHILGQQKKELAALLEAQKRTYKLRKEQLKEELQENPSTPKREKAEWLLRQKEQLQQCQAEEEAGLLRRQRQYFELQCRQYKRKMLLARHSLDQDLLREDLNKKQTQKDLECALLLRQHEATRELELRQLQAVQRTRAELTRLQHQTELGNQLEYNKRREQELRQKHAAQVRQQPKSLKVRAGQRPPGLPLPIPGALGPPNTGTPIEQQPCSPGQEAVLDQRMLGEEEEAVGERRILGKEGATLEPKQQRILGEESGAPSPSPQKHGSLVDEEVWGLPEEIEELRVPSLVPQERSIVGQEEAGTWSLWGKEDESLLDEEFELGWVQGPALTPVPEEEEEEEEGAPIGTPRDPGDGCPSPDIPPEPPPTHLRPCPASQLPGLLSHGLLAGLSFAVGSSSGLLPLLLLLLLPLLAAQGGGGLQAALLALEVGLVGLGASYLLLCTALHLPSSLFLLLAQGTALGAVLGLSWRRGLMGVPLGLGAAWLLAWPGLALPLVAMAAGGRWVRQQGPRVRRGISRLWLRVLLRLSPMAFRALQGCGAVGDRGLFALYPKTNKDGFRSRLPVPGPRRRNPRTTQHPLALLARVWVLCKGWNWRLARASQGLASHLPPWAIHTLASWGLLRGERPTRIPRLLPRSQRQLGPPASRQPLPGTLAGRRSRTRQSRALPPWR
The experiment is described as follows: Selectivity interaction (KinomeScan (DiscoverX)) EUB0000695a TAOK2. The following applies: at 100 nM.

The target in experiment [6] is Serine/threonine-protein kinase SIK1 (Homo sapiens) (UniProt P57059). In words: Selectivity interaction (ProQinase) EUB0000171b SIK1.
For the next experiment, the target named is Adenosine receptor A2a (Homo sapiens, UniProt P29274). In words: Selectivity interaction (Eurofins CEREP Diversity Profile (receptors and ion channels)) EUB0000279b ADORA2A. As to conditions: at 10 µM.
The target of experiment [7] is T2, Tyrosine-protein kinase TXK (Homo sapiens) (UniProt P42681).
T2 sequence (whole entry): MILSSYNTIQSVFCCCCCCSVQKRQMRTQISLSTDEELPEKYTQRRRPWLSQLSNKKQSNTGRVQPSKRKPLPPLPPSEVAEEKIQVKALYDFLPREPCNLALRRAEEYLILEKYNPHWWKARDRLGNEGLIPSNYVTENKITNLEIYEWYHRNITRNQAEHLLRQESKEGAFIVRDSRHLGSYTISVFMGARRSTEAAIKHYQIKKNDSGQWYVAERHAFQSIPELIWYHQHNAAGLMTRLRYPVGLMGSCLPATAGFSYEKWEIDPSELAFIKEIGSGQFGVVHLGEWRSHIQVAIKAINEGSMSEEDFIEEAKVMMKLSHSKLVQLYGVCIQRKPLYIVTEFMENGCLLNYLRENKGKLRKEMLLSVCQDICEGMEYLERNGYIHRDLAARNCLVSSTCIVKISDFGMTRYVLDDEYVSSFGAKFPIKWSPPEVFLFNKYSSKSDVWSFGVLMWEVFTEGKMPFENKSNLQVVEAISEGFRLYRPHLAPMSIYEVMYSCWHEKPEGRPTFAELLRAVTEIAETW
In words: Selectivity interaction (KinomeScan (DiscoverX)) EUB0000092b TXK. As to conditions: at 10 µM.

In experiment [8] the target is Tyrosine-protein kinase Blk (Homo sapiens) (UniProt P51451). In words: Selectivity interaction (Upstate Kinase Profiler service (Millipore)) EUB0000056c BLK. The following applies: at 1 µM.

Some results are limits rather than exact numbers.

Serine/threonine-protein kinase SIK1 (Homo sapiens), sequence (P57059 whole entry): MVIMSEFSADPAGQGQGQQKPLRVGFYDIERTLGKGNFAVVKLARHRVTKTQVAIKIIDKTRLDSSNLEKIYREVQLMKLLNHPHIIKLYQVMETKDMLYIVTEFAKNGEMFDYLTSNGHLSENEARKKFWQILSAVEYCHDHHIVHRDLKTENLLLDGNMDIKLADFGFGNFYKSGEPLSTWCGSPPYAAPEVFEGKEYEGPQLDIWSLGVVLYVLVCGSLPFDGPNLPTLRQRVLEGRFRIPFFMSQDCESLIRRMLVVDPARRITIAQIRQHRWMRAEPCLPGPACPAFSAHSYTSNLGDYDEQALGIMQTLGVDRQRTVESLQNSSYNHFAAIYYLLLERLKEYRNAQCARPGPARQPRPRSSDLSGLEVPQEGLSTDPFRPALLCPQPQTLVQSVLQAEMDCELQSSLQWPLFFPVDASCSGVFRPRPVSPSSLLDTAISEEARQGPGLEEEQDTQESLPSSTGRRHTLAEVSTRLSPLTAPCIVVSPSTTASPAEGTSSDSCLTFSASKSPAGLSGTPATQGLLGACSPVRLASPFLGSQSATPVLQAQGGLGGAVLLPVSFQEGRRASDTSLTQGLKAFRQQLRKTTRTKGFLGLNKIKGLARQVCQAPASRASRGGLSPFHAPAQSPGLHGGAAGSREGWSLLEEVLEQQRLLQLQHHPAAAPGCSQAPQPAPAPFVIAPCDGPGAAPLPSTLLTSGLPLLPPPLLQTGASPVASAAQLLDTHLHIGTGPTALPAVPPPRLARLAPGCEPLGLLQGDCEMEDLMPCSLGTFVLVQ
Epidermal growth factor receptor, sequence (P00533 whole entry): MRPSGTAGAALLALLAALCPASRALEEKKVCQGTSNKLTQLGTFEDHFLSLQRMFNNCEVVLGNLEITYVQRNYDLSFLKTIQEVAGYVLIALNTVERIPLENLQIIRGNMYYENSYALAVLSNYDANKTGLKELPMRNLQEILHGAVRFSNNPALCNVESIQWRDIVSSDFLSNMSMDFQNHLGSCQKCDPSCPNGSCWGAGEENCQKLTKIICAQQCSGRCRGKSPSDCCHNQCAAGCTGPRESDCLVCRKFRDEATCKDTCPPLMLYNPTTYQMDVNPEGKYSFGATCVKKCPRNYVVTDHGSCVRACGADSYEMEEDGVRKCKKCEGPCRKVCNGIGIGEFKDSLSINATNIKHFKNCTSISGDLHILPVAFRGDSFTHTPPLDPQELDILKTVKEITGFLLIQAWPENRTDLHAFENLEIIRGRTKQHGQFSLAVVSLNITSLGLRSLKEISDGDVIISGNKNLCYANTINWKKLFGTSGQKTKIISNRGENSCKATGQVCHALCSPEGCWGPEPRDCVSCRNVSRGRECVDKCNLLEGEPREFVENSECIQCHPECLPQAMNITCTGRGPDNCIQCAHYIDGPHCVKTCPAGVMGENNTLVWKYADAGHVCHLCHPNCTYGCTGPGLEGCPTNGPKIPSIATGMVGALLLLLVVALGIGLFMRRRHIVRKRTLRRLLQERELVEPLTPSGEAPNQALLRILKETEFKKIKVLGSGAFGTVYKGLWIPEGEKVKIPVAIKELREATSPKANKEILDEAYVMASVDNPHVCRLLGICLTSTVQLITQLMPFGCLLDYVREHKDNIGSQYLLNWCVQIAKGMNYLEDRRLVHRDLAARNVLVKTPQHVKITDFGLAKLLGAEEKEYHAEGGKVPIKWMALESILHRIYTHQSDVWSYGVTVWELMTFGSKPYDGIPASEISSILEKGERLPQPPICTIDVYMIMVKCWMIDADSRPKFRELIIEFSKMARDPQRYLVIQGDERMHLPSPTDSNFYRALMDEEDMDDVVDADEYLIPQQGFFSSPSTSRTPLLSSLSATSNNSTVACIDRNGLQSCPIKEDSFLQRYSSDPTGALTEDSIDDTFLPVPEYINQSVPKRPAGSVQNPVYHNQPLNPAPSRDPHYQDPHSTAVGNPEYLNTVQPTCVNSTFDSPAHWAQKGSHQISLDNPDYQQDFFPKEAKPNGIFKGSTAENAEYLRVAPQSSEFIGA
Tyrosine-protein kinase Blk (Homo sapiens), sequence (P51451 2-505 limits assumed): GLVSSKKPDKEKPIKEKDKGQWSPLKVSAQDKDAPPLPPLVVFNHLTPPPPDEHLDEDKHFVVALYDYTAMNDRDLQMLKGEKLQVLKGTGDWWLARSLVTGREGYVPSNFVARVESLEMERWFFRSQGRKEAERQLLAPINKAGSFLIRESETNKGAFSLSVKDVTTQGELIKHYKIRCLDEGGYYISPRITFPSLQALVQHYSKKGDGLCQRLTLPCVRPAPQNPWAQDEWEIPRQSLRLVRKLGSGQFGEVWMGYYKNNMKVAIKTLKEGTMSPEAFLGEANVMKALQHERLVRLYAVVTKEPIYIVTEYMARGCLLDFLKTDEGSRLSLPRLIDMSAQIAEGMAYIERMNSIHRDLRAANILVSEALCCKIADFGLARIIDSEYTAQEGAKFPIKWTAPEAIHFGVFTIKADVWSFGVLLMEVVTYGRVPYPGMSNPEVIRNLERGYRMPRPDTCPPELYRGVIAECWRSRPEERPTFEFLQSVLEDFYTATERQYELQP
eIF-2-alpha kinase GCN2 (Homo sapiens), Q9P2K8 [S808G], sequence (Q9P2K8 whole entry S808G): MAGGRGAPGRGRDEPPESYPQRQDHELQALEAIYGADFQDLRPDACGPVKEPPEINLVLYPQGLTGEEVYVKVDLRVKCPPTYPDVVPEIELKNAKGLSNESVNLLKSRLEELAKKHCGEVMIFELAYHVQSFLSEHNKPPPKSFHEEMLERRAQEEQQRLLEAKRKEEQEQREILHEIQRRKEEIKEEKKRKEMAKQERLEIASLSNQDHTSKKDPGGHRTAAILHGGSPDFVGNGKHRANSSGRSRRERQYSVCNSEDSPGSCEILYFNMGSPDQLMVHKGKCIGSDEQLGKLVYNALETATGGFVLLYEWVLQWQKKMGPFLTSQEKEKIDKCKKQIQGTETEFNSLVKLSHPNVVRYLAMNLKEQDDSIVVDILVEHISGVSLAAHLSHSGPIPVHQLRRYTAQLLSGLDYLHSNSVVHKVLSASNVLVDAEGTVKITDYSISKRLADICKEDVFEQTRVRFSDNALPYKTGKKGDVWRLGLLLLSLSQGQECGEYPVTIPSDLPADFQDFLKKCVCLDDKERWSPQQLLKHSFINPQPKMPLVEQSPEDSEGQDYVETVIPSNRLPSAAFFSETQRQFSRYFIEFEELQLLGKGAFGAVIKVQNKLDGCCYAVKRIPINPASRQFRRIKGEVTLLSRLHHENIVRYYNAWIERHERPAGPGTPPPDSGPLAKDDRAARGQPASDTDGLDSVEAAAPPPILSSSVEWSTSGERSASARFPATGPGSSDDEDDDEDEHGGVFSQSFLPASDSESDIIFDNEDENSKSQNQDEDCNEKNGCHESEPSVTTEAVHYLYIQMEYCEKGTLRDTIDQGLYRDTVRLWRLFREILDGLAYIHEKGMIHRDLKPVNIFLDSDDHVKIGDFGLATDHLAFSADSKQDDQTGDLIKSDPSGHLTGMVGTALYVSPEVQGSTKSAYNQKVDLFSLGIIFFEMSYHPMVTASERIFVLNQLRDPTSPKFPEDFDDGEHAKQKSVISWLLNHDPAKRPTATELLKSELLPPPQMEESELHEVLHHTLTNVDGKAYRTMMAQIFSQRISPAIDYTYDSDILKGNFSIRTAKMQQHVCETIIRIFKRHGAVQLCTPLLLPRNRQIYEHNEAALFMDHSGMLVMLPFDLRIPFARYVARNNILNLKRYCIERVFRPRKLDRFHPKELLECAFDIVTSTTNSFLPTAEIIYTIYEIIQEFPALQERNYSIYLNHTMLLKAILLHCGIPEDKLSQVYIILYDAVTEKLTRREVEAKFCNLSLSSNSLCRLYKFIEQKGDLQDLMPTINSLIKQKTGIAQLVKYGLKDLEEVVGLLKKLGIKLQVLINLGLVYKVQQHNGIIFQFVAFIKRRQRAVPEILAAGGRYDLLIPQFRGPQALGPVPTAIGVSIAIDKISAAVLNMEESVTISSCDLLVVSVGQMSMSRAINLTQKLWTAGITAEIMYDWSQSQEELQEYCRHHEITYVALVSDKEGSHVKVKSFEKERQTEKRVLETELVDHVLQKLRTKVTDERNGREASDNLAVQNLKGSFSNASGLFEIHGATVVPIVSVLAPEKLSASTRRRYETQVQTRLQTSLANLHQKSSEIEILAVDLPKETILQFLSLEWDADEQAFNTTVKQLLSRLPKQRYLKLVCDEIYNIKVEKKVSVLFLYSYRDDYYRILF
Calcium/calmodulin-dependent protein kinase type II subunit beta (Homo sapiens), sequence (Q13554 whole entry): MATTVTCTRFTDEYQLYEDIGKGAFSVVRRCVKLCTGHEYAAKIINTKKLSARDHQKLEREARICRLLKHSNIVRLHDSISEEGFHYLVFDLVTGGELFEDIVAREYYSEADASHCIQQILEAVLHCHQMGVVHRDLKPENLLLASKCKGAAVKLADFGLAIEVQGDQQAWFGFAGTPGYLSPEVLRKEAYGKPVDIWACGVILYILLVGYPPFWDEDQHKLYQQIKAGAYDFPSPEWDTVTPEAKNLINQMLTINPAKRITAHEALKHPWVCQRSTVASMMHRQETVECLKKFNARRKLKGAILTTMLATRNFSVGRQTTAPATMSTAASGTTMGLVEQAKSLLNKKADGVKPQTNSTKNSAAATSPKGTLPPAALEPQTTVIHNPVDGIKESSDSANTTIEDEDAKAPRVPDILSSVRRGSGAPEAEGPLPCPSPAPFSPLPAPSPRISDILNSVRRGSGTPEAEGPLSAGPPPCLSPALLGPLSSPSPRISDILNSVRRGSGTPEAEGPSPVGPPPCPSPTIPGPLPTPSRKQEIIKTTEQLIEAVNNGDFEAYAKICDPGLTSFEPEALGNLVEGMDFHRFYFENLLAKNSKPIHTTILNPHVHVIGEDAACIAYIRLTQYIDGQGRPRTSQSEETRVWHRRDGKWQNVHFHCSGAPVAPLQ

`CN(C)C/C=C/C(=O)Nc1ccc(C(=O)N2CCCC(Nc3ncc(Cl)c(-c4c[nH]c5ccccc45)n3)C2)cc1` (stereo not given) came in with a % of control in [1] of 64%.

In the case of `CC(C)(O)[C@H](F)CN1Cc2cc(NC(=O)c3cnn4cccnc34)c(N3CCOCC3)cc2C1=O`, in experiment [2], the dTM was found to be 0.1 K.

Turning to `CCC(=O)N1CC[C@H](Nc2ncnc3c2CN(c2cnc(OC)c(C(F)(F)F)c2)CC3)C1` [LENIOLISIB], the IC50 in experiment [3] and in [4] was more than 10 µM throughout.

Regarding `Cc1cc(F)c(C(=O)Nc2cccc(-c3nncn3C(C)C)n2)cc1-n1cnc(C2CC2)c1`, the % of control in experiment [5] worked out at 100%.

In the case of `C=CC(=O)Nc1cccc(C(=O)Nc2ccc(Nc3cc(-c4[nH]c(SC)nc4C)ccn3)cc2)c1`, the % of control in experiment [6] (at 1 µM) stood at 107%; in experiment [6] (at 5 µM), 102%.

`CC(=O)c1cc(-c2ccccc2OCC2CC2)c2ncccn12` registered a % of control at Adenosine receptor A2a of 80%.

Regarding `CCC(=O)N1CCN(c2ccc(-n3c(=O)ccc4cnc5ccc(-c6cnc7ccccc7c6)cc5c43)cc2C(F)(F)F)CC1`, the % of control in experiment [7] worked out at 54%.

With `Cc1ccc(-c2ccc3c(ccc4sc5c(c43)NC[C@@H](C)NC5=O)n2)cn1`, the % of inhibition in experiment [8] was found to be 14%.

The record behind these values is ChEMBL document CHEMBL5465560, “Selectivity Literature for EUbOPEN Chemogenomic Library” (2024).
